Results: patent US7384919B2, “Increased solubility flavanolignan preparations” (IVAX Pharmaceuticals s.r.o., priority 2001, dated 2008)

Assay: Dissolution test of samples filled in hard gelatin capsules (Ph. Eur. Type 2 device)
Assay type: physicochemical
Settings: Example 2 samples (pure silybin/silydianin), tested as described for Example 1 (capsule, pH 7.5, 100 rpm)
Protocol: For this purpose 100 mg of each Samples were filled in hard gelatin capsules (number 00). Individual capsules underwent the test on the device as per the Ph. Eur. Type 2 in 2 litres of the dissolution medium pH 7.5 and under 100 revolutions per minute.

COc1cc(C2Oc3cc([C@H]4Oc5cc(O)cc(O)c5C(=O)[C@@H]4O)ccc3OC2CO)ccc1O (some centres unmarked) [Silybin, silybin]
Dissolution Values, 30 minutes (after 30 minutes): 4.6%
Dissolution Values, 60 minutes (after 60 minutes): 4.5%
